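Test compounds were applied to cells in 96-well plates for 48 hours at 5 doses. Here, GI50 denotes the concentration required for 50% inhibition of growth.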 The source made the active and inactive calls. No stated cut-off is given here; in the data, active = GI50 up to about 1.1 µM and inactive = higher.
Columns and labels:
Experiment in all cases: inhibition of tumour cell growth, NCI panel, 48 h
[1] = test system: A498
[2] = test system: HCT-116
[3] = test system: HL-60
[4] = test system: HOP-92
[5] = test system: HT-29
[6] = test system: IGROV-1
[7] = test system: LOX IMVI
[8] = test system: M14
[9] = test system: NCI/ADR-RES
[10] = test system: OVCAR-3
[11] = test system: OVCAR-4
[12] = test system: OVCAR-5
[13] = test system: RXF 393
[14] = test system: SF-268
[15] = test system: SF-539
[16] = test system: SN12C
[17] = test system: U-251
[18] = test system: UACC-62
[19] = test system: SNB-75

Measured: GI50

CC(=O)NC(=O)/N=C1\NCCC(=O)N1CCc1c[nH]c2ccccc12
inactive: [1] > 100 µM | [2] > 100 µM | [3] > 100 µM | [4] > 100 µM | [5] > 100 µM | [6] > 100 µM | [7] > 100 µM | [8] > 100 µM | [9] > 100 µM | [10] > 100 µM | [11] > 100 µM | [12] > 100 µM | [13] > 100 µM | [14] > 100 µM | [15] > 100 µM | [16] > 100 µM | [17] > 100 µM | [18] > 100 µM

CC(=O)N(CN1C(=O)CCC1C(=O)O)c1ccc(C)cc1 (stereo not drawn)
inactive: [1] > 100 µM | [2] > 100 µM | [3] > 100 µM | [4] > 100 µM | [5] > 100 µM | [6] > 100 µM | [7] > 100 µM | [8] > 100 µM | [9] > 100 µM | [10] > 100 µM | [11] > 100 µM | [12] > 100 µM | [14] > 100 µM | [15] > 100 µM | [16] > 100 µM | [19] > 100 µM | [17] > 100 µM | [18] > 100 µM

CN1CCC2(CC1)/C(=N/C1CCCCC1)NC(=O)N2c1ccccc1
inactive: [1] > 100 µM | [2] > 100 µM | [3] > 100 µM | [4] 43.7 µM | [5] > 100 µM | [6] > 100 µM | [8] > 100 µM | [9] > 100 µM | [12] > 100 µM | [13] > 100 µM | [14] > 100 µM | [16] > 100 µM | [19] > 100 µM | [17] > 100 µM | [18] > 100 µM

CN(C)N1C(=O)SCC(c2ccccc2)(c2ccccc2)C1=O
inactive: [1] > 100 µM | [2] > 100 µM | [3] > 100 µM | [4] > 100 µM | [5] > 100 µM | [7] > 100 µM | [8] > 100 µM | [9] > 100 µM | [10] > 100 µM | [12] > 100 µM | [13] > 100 µM | [14] > 100 µM | [15] > 100 µM | [16] > 100 µM | [19] 60.1 µM | [17] > 100 µM | [18] 56.8 µM

CC1(C)O[C@H]2OC(CO)C(OS(C)(=O)=O)[C@H]2O1 (stereo partly drawn)
inactive: [1] > 100 µM | [2] > 100 µM | [3] > 100 µM | [4] > 100 µM | [5] > 100 µM | [6] > 100 µM | [7] > 100 µM | [8] > 100 µM | [9] > 100 µM | [10] > 100 µM | [11] > 10 µM | [12] > 100 µM | [14] > 100 µM | [15] > 100 µM | [16] > 100 µM | [19] > 100 µM | [17] > 100 µM | [18] > 100 µM

C=C(C)CC1(O[Si](C)(C)C)C(=O)C(OCC)=C1OCC (stereo not drawn)
inactive: [1] > 100 µM | [2] > 100 µM | [3] > 100 µM | [4] > 100 µM | [5] > 100 µM | [6] > 100 µM | [7] > 100 µM | [8] > 100 µM | [9] > 100 µM | [10] > 100 µM | [11] > 100 µM | [12] > 100 µM | [14] > 100 µM | [15] > 100 µM | [16] > 100 µM | [19] > 100 µM | [17] > 100 µM | [18] > 100 µM

COc1c(C(C)(C)C)cc(CC2C(=O)C=CC2=O)cc1C(C)(C)C
inactive: [1] 18 µM | [2] 3.13 µM | [3] 4.34 µM | [4] 16.1 µM | [5] 15.5 µM | [6] 14.2 µM | [7] 11.1 µM | [8] 17.9 µM | [9] 32 µM | [10] 13.9 µM | [11] 21.2 µM | [12] 18.3 µM | [13] 14.8 µM | [14] 19.1 µM | [15] 11.1 µM | [16] 26.5 µM | [17] 18.2 µM | [18] 17.9 µM

CCC1=NC(N/N=C/c2ccco2)=N/C1=C\c1ccco1
inactive: [1] > 100 µM | [2] > 100 µM | [3] > 100 µM | [4] > 100 µM | [5] > 100 µM | [6] > 100 µM | [7] > 100 µM | [8] > 100 µM | [9] > 100 µM | [11] > 100 µM | [12] > 100 µM | [13] > 100 µM | [14] > 100 µM | [16] > 100 µM | [17] > 100 µM | [18] > 100 µM

— ChEMBL document CHEMBL1201862, “PubChem BioAssay data set” (2004)
